Test results published in patent publication US20030134264A1, “Method of preventing darkening of skin or inhibiting melanization of melenin monomer and polymerization inhibitor of biological dihydroxyindole compound” (SHISEIDO COMPANY, LTD., priority 2001, published 2003).

Experiment: Inhibition of melanization of DHICA by ultraviolet rays (absorbance at 405 nm, microplate)
Conditions: FL-20BLB fluorescent lamp, long wavelength UV, absorbance 405 nm
Protocol: DHICA can be synthesized by a known method. 0.01 to 1.0 mg/ml of DHICA or its sodium salt is dissolved in water or a buffer such as phosphate buffer and 100 to 200 μl amounts distributed into microplate wells. A fluorescent lamp or solar simulator or monochrometer is used to irradiate this with ultraviolet rays for 10 minutes to 3 hours, then the absorbance at 405 nm is measured by a microplate reader to evaluate the amount of black-brown melanin.
0.01 to 1.0 mg/ml of DHICA or its sodium salt is dissolved in water or a buffer such as a phosphate buffer and 100 to 200 μl amounts distributed into microplate wells. Compounds or plant extracts prepared at various concentrations are added in 1 to 100 μl amounts or before addition a fluorescent lamp or solar simulator or monochrometer is used to irradiate this with ultraviolet rays for 10 minutes to 3 hours, then the absorbance of 405 nm is measured by a microplate reader to evaluate the extent of black-brown melanin and evaluate the effect of the compound or plant extract.
The action of an inhibitor containing vitamin C and its derivatives as effective ingredients in inhibiting melanization of DHICA due to ultraviolet rays was evaluated by the following effect of inhibition of melanization of DHICA due to ultraviolet rays.
(§1) 0.01 to 1.0 mg/ml of DHICA or its sodium salt is dissolved in water and 100 μl amounts distributed into microplate wells. 100 μl of ascorbic acid or its derivative adjusted to various concentrations was added and an FL-20BLB fluorescent lamp used to irradiate long wavelength ultraviolet rays. The absorbance at 405 nm was measured by a microplate reader to evaluate the amount of black-brown melanin and evaluate the effect of the compound.
as §1, with “The action of an inhibitor containing 3-O-ethyl ascorbic acid as effective ingredients in inhibiting melanization of DHICA due to ultraviolet rays was evaluated by the following effect of inhibition of melanization of DHICA due to ultraviolet rays. 0.01” for “0.01”, “the extent” for “the amount”

Compound	Rate of inhibition of UV-introduced melanization of DHICA (%) (sample concentration 0.01%)	Rate of suppression of UV-induced melanization of DHICA (%) (sample concentration 0.01%)	Rate of inhibition of UV-introduced melanization of DHICA (%) (sample concentration 0.1%)	Rate of suppression of UV-induced melanization of DHICA (%) (sample concentration 0.1%)
CCOC1=C(O)C(=O)O[C@@H]1[C@@H](O)CO [3-O-ethyl ascorbic acid]	40%	40%	80%	80%
O=C1O[C@H]([C@@H](O)CO)C(O)=C1O[C@H]1O[C@H](CO)[C@@H](O)[C@H](O)[C@H]1O [AA-2G, Ascorbate-2-O-α-glucoside]			20%	20%
O=C1O[C@H]([C@@H](O)CO)C([O-])=C1OP(=O)([O-])[O-].O=C1O[C@H]([C@@H](O)CO)C([O-])=C1OP(=O)([O-])[O-].[Mg+2].[Mg+2].[Mg+2] [APM, Magnesium ascorbate phosphate ester]			20%	
O=C1O[C@H]([C@@H](O)CO)C(O)=C1O [Ascorbic acid]			70%	70%
